Data as given in publication doi:10.1101/2020.02.10.936898v1 (biorxiv, 2020).

Columns and labels:
HCoV-NL63 M^pro = HCoV-NL63 M^pro (Human coronavirus NL63, UniProt P0C6X5); test: FRET peptide cleavage assay; assay type: biochemical
CVB3 3C^pro [1] = molecular target: T1, CVB3 3C^pro (Coxsackievirus B3, UniProt Q5UEA2); test: FRET peptide cleavage assay; assay type: biochemical
CVB3 3C^pro [2] = molecular target: T1, CVB3 3C^pro; test: biochemical
EV-A71 3C^pro = EV-A71 3C^pro (Human enterovirus 71 (strain BRCR), UniProt Q66478); conditions: read-out: EV-A71 3Cpro; inhibitor
CVB3 (Nancy) = test: microbe, parasite or virus in culture; parameters: species or system Huh-T7; conditions: Enterovirus B, CVB3, read-out: CVB3 replicon *
EV-A71 = test: microbe, parasite or virus in culture; parameters: species or system Huh-T7; conditions: Enterovirus A, EVA71, read-out: EV-A71 replicon *

Sequence of HCoV-NL63 M^pro (P0C6X5 2940-3242): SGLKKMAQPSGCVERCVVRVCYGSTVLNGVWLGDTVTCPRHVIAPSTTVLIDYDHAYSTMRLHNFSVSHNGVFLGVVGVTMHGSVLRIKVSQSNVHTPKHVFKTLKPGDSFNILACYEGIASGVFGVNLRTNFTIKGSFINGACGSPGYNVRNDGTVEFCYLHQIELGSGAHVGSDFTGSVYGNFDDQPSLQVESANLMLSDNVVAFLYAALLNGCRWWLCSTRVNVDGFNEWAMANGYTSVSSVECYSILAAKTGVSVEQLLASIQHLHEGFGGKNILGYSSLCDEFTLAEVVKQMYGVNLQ
Sequence of EV-A71 3C^pro (Q66478 1549-1731): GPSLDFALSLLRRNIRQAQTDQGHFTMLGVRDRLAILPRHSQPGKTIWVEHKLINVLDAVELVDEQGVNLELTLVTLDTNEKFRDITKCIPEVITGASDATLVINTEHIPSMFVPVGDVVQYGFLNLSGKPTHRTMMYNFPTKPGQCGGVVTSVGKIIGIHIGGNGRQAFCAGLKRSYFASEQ

CC(C)(C)OC(=O)N[C@@H](C[C@@H]1CCNC1=O)C(=O)C(=O)NCc1ccccc1 [11f, tert-Butyl ((S)-4-(benzylamino)-3,4-dioxo-1-((S)-2-oxopyrrolidin-3-yl)butan-2-yl)carbamate]
IC50 (HCoV-NL63 M^pro): > 50 µM | IC50 (CVB3 3C^pro [1]): > 50 µM

O=C(NCc1ccccc1)C(=O)[C@H](C[C@@H]1CCNC1=O)NC(=O)[C@H](Cc1ccccc1)NC(=O)c1cc2ccccc2o1 [11j]
IC50 (CVB3 3C^pro [2]): 9.19 ± 2.99 µM | IC50 (EV-A71 3C^pro): 11.3 ± 6.52 µM

O=C(NCc1ccccc1)C(=O)[C@H](C[C@@H]1CCNC1=O)NC(=O)[C@H](Cc1ccccc1)NC(=O)c1cn2cc(Br)ccc2n1 [11l]
IC50 (CVB3 3C^pro [2]): 30.8 ± 12.9 µM | IC50 (EV-A71 3C^pro): > 50 µM

O=C(CCc1ccccc1)N[C@@H](Cc1ccccc1)C(=O)N[C@@H](C[C@@H]1CCNC1=O)C(=O)C(=O)NCc1ccccc1 [11g]
IC50 (CVB3 3C^pro [2]): 3.5 ± 1.06 µM | IC50 (EV-A71 3C^pro): 4.57 ± 1.04 µM

O=C(/C=C/c1ccccc1)N[C@H](C(=O)N[C@@H](C[C@@H]1CCNC1=O)C(=O)C(=O)NCc1ccccc1)C1CC1 [11q, (S)-N-benzyl-3-((S)-2-cinnamamido-2-cyclopropylacetamido)-2-oxo-4-((S)-2-oxopyrrolidin-3-yl)butanamide]
IC50 (HCoV-NL63 M^pro): 11.5 ± 5.05 µM | IC50 (CVB3 3C^pro [1]): 15.4 ± 4.12 µM

O=C(/C=C/c1ccccc1)N[C@@H](CC1CCC1)C(=O)N[C@@H](C[C@@H]1CCNC1=O)C(=O)C(=O)NCc1ccccc1 [11t, (S)-N-benzyl-3-((S)-2-cinnamamido-3-cyclobutylpropanamido)-2-oxo-4-((S)-2-oxopyrrolidin-3-yl)butanamide]
EC50 (CVB3 (Nancy)): 2.2 µM | IC50 (HCoV-NL63 M^pro): 3.43 ± 2.45 µM | IC50 (CVB3 3C^pro [1]): 4.78 ± 1.13 µM

CC(C)CNC(=O)C(=O)[C@H](C[C@@H]1CCNC1=O)NC(=O)[C@H](CC(C)C)NC(=O)/C=C/c1ccccc1 [11d]
IC50 (CVB3 3C^pro [2]): 6.5 ± 0.58 µM | IC50 (EV-A71 3C^pro): 17.7 ± 8.78 µM

C#CC[C@H](NC(=O)/C=C/c1ccccc1)C(=O)N[C@@H](C[C@@H]1CCNC1=O)C(=O)C(=O)NCc1ccccc1 [11p, (S)-N-((S)-4-(benzylamino)-3,4-dioxo-1-((S)-2-oxopyrrolidin-3-yl)butan-2-yl)-2-cinnamamidopent-4-ynamide]
IC50 (HCoV-NL63 M^pro): 17.4 ± 3.97 µM | IC50 (CVB3 3C^pro [1]): 8.93 ± 2.39 µM

O=C(/C=C/c1ccccc1)N[C@@H](CC1CCCCC1)C(=O)N[C@@H](C[C@@H]1CCNC1=O)C(=O)C(=O)NCc1ccccc1 [11r, (S)-N-benzyl-3-((S)-2-cinnamamido-3-cyclohexylpropanamido)-2-oxo-4-((S)-2-oxopyrrolidin-3-yl)butanamide]
EC50 (CVB3 (Nancy)): 0.45 µM | EC50 (EV-A71): 0.85 µM | IC50 (HCoV-NL63 M^pro): 12.3 ± 3.56 µM | IC50 (CVB3 3C^pro [1]): 0.95 ± 0.15 µM

O=C(NCc1ccccc1)C(=O)[C@H](C[C@@H]1CCNC1=O)NC(=O)[C@H](Cc1ccccc1)NC(=O)c1cccc2c1OCCO2 [11i]
IC50 (CVB3 3C^pro [2]): 4.82 ± 1.17 µM | IC50 (EV-A71 3C^pro): 9.74 ± 3.88 µM

O=C(/C=C/c1ccccc1)N[C@@H](CC1CCCC1)C(=O)N[C@@H](C[C@@H]1CCNC1=O)C(=O)C(=O)NCc1ccccc1 [11u, (S)-N-benzyl-3-((S)-2-cinnamamido-3-cyclopentylpropanamido)-2-oxo-4-((S)-2-oxopyrrolidin-3-yl)butanamide]
EC50 (CVB3 (Nancy)): 4.9 µM | EC50 (EV-A71): 3.65 µM | IC50 (HCoV-NL63 M^pro): 5.41 ± 2.31 µM | IC50 (CVB3 3C^pro [1]): 1.93 ± 0.43 µM

O=C(/C=C/c1ccccc1)N[C@@H](CC1CC1)C(=O)N[C@@H](C[C@@H]1CCNC1=O)C(=O)C(=O)NCc1ccccc1 [11s, (S)-N-benzyl-3-((S)-2-cinnamamido-3-cyclopropylpropanamido)-2-oxo-4-((S)-2-oxopyrrolidin-3-yl)butanamide]
IC50 (HCoV-NL63 M^pro): 1.37 ± 0.35 µM | IC50 (CVB3 3C^pro [1]): 4.25 ± 1.4 µM

CC(C)C[C@H](NC(=O)/C=C/c1ccccc1)C(=O)N[C@@H](C[C@@H]1CCNC1=O)C(=O)C(=O)NCc1ccccc1 [11n, (S)-N-((S)-4-(benzylamino)-3,4-dioxo-1-((S)-2-oxopyrrolidin-3-yl)butan-2-yl)-2-cinnamamido-4-methylpentanamide]
IC50 (HCoV-NL63 M^pro): 1.08 ± 0.09 µM | IC50 (CVB3 3C^pro [1]): 3.82 ± 1.21 µM

O=C(NCc1ccccc1)C(=O)[C@H](C[C@@H]1CCNC1=O)NC(=O)[C@H](Cc1ccccc1)NC(=O)c1cc2ccccc2s1 [11k]
IC50 (CVB3 3C^pro [2]): 18.6 ± 0.58 µM | IC50 (EV-A71 3C^pro): > 50 µM

O=C(/C=C/c1ccccc1)N[C@@H](Cc1ccccc1)C(=O)N[C@@H](C[C@@H]1CCNC1=O)C(=O)C(=O)NCc1ccccc1 [11a, (S)-N-benzyl-3-((S)-2-cinnamamido-3-phenylpropanamido)-2-oxo-4-((S)-2-oxopyrrolidin-3-yl)butanamide]
IC50 (HCoV-NL63 M^pro): > 50 µM | IC50 (CVB3 3C^pro [1]): 6.56 ± 3.1 µM

CCCCNC(=O)C(=O)[C@H](C[C@@H]1CCNC1=O)NC(=O)[C@H](Cc1ccccc1)NC(=O)/C=C/c1ccccc1 [11b]
IC50 (CVB3 3C^pro [2]): 1 ± 0.35 µM | IC50 (EV-A71 3C^pro): 2.38 ± 0.58 µM

CC(C)(C)NC(=O)C(=O)[C@H](C[C@@H]1CCNC1=O)NC(=O)[C@H](Cc1ccccc1)NC(=O)/C=C/c1ccccc1 [11c]
IC50 (CVB3 3C^pro [2]): 9.86 ± 2.68 µM | IC50 (EV-A71 3C^pro): 19 ± 5.79 µM

O=C(NCc1ccccc1)C(=O)[C@H](C[C@@H]1CCNC1=O)NC(=O)[C@H](Cc1ccccc1)NC(=O)c1ccc2c(c1)OCCO2 [11h]
IC50 (CVB3 3C^pro [2]): 3.66 ± 0.79 µM | IC50 (EV-A71 3C^pro): 4.75 ± 2.73 µM

CCCC[C@H](NC(=O)/C=C/c1ccccc1)C(=O)N[C@@H](C[C@@H]1CCNC1=O)C(=O)C(=O)NCc1ccccc1 [11o, (S)-N-((S)-4-(benzylamino)-3,4-dioxo-1-((S)-2-oxopyrrolidin-3-yl)butan-2-yl)-2-cinnamamidohexanamide]
IC50 (HCoV-NL63 M^pro): > 50 µM | IC50 (CVB3 3C^pro [1]): 5.2 ± 0.28 µM

COC(=O)CNC(=O)C(=O)[C@H](C[C@@H]1CCNC1=O)NC(=O)[C@H](Cc1ccccc1)NC(=O)/C=C/c1ccccc1 [11e]
IC50 (CVB3 3C^pro [2]): 9.91 ± 1.84 µM | IC50 (EV-A71 3C^pro): 11.1 ± 2.64 µM

O=C(/C=C/c1ccccc1)N[C@@H](Cc1ccc(F)cc1)C(=O)N[C@@H](C[C@@H]1CCNC1=O)C(=O)C(=O)NCc1ccccc1 [11m, (S)-N-benzyl-3-((S)-2-cinnamamido-3-(4-fluorophenyl)propanamido)-2-oxo-4-((S)-2-oxopyrrolidin-3-yl)butanamide]
IC50 (HCoV-NL63 M^pro): > 50 µM | IC50 (CVB3 3C^pro [1]): 8.69 ± 1.28 µM
